The values that follow come from PubChem BioAssay AID1361 (SRMLSC, 2008).

Each structure is given as a SMILES string. Active and inactive are the calls of the source. How the calls were made is not given here. A value given as a limit tells only on which side of the number the result lay.

The assay can be described thus: mitochondrial fusion inhibitors, confirmation, cell-based, chemical genetic, wild-type and mutant (AID 1361). The settings on record: Cell-based mitochondrial fusion phenotype, imaging.
[1] abbreviates: mutant cells, measured here: mutant cell line IC50.

As usually defined, the IC50 is the concentration that inhibits the measured activity by half. Consider `COc1cccc(N2C(=O)C(c3ccccc3)=C(c3nc4ccccc4s3)C2NC(C)=O)c1` (stereo unspecified), for which the IC50 runs as follows: (WT cells) > 25 µM (inactive); under setting [1], > 25 µM.

Regarding `CCOc1c(OC(C)=O)ccc(/C=C/c2ccc3cccc(OC(C)=O)c3n2)c1[N+](=O)[O-]`, the IC50 runs as follows: (WT cells) > 25 µM (inactive); under setting [1], > 25 µM.

Take `COC(=O)C1CSc2[nH]c(=O)sc2C1c1ccc(OC)c(OC)c1` (stereo unspecified): the IC50 by setting is: (WT cells) > 25 µM (inactive); under setting [1], > 25 µM.

With `Cc1ccc2c(N)c(C#N)sc2n1`, the IC50 (WT cells) is > 25 µM (inactive) and the IC50 under setting [1] was > 25 µM.

Turning to `O=C(CC(Nc1ccc(F)cc1)c1ccccc1)c1ccccc1` (stereo unspecified), the IC50 reads like this: (WT cells) 16.5 µM; under setting [1], > 25 µM.

Consider `CC(=O)N(C)c1ccc(OCC(O)Cn2c3ccc(Cl)cc3c3cc(Cl)ccc32)cc1` (stereo unspecified), for which the IC50 is, setting by setting: (WT cells) 4.12 µM; under setting [1], > 25 µM.

As to `CCC(C)(C)NC(=O)C(c1ccc(C)cc1)N(Cc1cccs1)C(=O)c1ccc2c(c1)OCCO2` (stereo unspecified), the IC50 is, setting by setting: (WT cells) 14.1 µM; under setting [1], > 25 µM.

Consider `Cc1ccc2cc(CN(C(=O)c3ccco3)c3ccccc3C)c(=O)[nH]c2c1`, for which the IC50 is, setting by setting: (WT cells) > 25 µM (inactive); under setting [1], > 25 µM.

`COc1ccccc1N=Nc1nc(-c2ccccc2)c(-c2ccccc2)[nH]1`: the half-inhibitory concentration (IC50) runs as follows: (WT cells) 7.2 µM; under setting [1], 17.4 µM.

As to `Clc1cccc(N=C2NN=C(c3ccc4c(c3)OCCO4)CS2)c1`, the IC50 by setting is: (WT cells) 15.9 µM; under setting [1], > 25 µM.

Turning to `Cn1c(CN2CCCCC2)nc2cc(NC(=O)c3ccc(Cl)cc3)ccc21`, the IC50 runs as follows: (WT cells) > 25 µM (inactive); under setting [1], > 25 µM.

Regarding `Cc1cc(Oc2ccc(C(C)(C)C)cc2)nc(N2CCOCC2)n1`, the IC50 is 19.9 µM (WT cells) and > 25 µM under setting [1].

With `CCC1CCCCN1c1cc(C)nc2cc(-c3cccc(C)c3)nn12` (stereo unspecified), the IC50 is 13.1 µM (WT cells) and > 25 µM under setting [1].

Take `O=C(c1ccccn1)N1N=C2/C(=C/c3ccc(F)cc3)CCCC2C1c1ccc(F)cc1` (stereo unspecified): the IC50 was 16.1 µM (WT cells) and > 25 µM under setting [1].

Turning to `CCCOc1ccc(Cc2c(Cl)nc(SC)nc2N(C)C)cc1`, the IC50 (WT cells) was 9.94 µM and the IC50 under setting [1] was > 25 µM.

Regarding `COC(=O)C1=C(C)N(C(C)c2ccccc2)C(=O)/C1=C\c1ccco1` (stereo unspecified), the IC50 was 24.2 µM (WT cells) and > 25 µM under setting [1].

In the case of `Cc1cnc(C(=O)OCC(=O)Nc2ccc(Cl)cc2)cn1`, the IC50 (WT cells) was > 25 µM (inactive) and the IC50 under setting [1] is > 12.5 µM.

Consider `Cc1cccc(-n2c(CCc3ccccc3)nnc2SCC(=O)c2ccccc2)c1`, for which the 50% inhibitory concentration (IC50) reads like this: (WT cells) 20.6 µM; under setting [1], > 25 µM.

`COc1cccc(NC(=S)N(CCc2c(C)[nH]c3ccccc23)Cc2ccco2)c1`: the IC50 runs as follows: (WT cells) 15.6 µM (inactive); under setting [1], > 12.5 µM.

On to `O=C1COc2ccc(NC(=O)N3CCN(c4ccc(F)cc4)CC3)cc2N1`, for which the IC50 reads like this: (WT cells) > 25 µM (inactive); under setting [1], > 25 µM.

As to `COc1ccccc1-n1cnc2sc(-c3ccccc3)cc2c1=O`, the IC50 is > 25 µM (inactive) (WT cells) and > 25 µM under setting [1].

Take `CC(C)(C)[C@H]1C=C(C(=O)N2CCN(Cc3ccccc3)CC2)O[C@@H](OCc2ccc(CO)cc2)C1`: the IC50 is 21.7 µM (WT cells) and > 25 µM under setting [1].

Consider `CC1CCN(c2nc(-c3cccnc3)nc3scc(-c4ccccc4)c23)CC1`, for which the IC50 runs as follows: (WT cells) 13.1 µM; under setting [1], > 25 µM.

Turning to `CC1CN(c2oc(Cc3cccc4ccccc34)nc2C#N)CC(C)O1` (stereo unspecified), the IC50 runs as follows: (WT cells) > 25 µM (inactive); under setting [1], > 25 µM.

As to `O=C(c1ccc(Cl)c(Cl)c1)c1cnc(Nc2ccccc2)s1`, the IC50 was > 25 µM (inactive) (WT cells) and > 25 µM under setting [1].

For `Cc1nnc(NC(=O)c2sc3nc(-c4cccs4)cc(C(F)(F)F)c3c2N)s1`, the IC50 runs as follows: (WT cells) > 25 µM (inactive); under setting [1], > 25 µM.

For the compound `CCN(Cc1ccccc1)c1ccc(/C=N/NC(=S)NC(C)C)cc1`, the IC50 reads like this: (WT cells) 5.04 µM; under setting [1], > 25 µM.

Turning to `Fc1ccc(-c2csc3ncnc(N4CCc5ccccc5C4)c23)cc1`, the IC50 was 9.26 µM (WT cells) and > 25 µM under setting [1].

Take `CC(C)C(=O)Nc1nnc(SCC(=O)NCc2cccs2)s1`: the IC50 was > 25 µM (inactive) (WT cells) and > 25 µM under setting [1].

`Cc1cc(C)n(-c2nc(C)nc3c2cnn3-c2ccccc2)n1`: the IC50 was > 25 µM (inactive) (WT cells) and > 25 µM under setting [1].

Take `CC(C)(C)c1ccc(CNc2ccc([N+](=O)[O-])cn2)cc1`: the IC50 was > 25 µM (inactive) (WT cells) and > 25 µM under setting [1].

Take `COc1ccc(/C=C/C(=O)c2ccc(O)cc2)cc1COc1ccc(F)cc1`: the IC50 reads like this: (WT cells) 11.9 µM; under setting [1], > 25 µM.

Take `CCOC(=O)c1c(NC(=O)c2cccs2)sc2c1CCCC2`: the IC50 (WT cells) is > 25 µM (inactive) and the IC50 under setting [1] was > 25 µM.

On to `CCN(CC)CCNC(=O)Cn1nc(Cc2ccccc2)c2ccccc2c1=O`, for which the IC50 (WT cells) was > 25 µM (inactive) and the IC50 under setting [1] was > 25 µM.

Regarding `CCC(C)(C)c1ccc2c(c1)C(=O)c1ccccc1C2=O`, the IC50 runs as follows: (WT cells) 18.6 µM; under setting [1], > 25 µM.

As for `Cc1csc(NC(=O)c2cccn2C)n1`, the IC50 (WT cells) was > 25 µM (inactive) and the IC50 under setting [1] is > 25 µM.

For the compound `Fc1ccc(N2CCN(c3nc(CN4CCOCC4)nc4scc(-c5ccccc5)c34)CC2)cc1`, the IC50 was 19.6 µM (WT cells) and 24 µM under setting [1].

As to `CCCCN(CCCC)C1=Nc2ccccc2N/C1=C(/C#N)C(=O)OCC`, the IC50 (WT cells) was 6.94 µM and the IC50 under setting [1] was > 25 µM.

`CC(=O)Oc1ccccc1N(C(C)=O)S(=O)(=O)c1ccc2ccccc2c1`: the IC50 (WT cells) was > 25 µM (inactive) and the IC50 under setting [1] is > 25 µM.

On to `Cc1ccccc1N1CCN(c2ncnc3scc(-c4cccs4)c23)CC1`, for which the IC50 reads like this: (WT cells) 9.75 µM; under setting [1], > 12.5 µM.

For `CCOc1cccc(Oc2ncccc2C(=O)/C(C#N)=C/N(C)C)c1`, the IC50 reads like this: (WT cells) > 25 µM (inactive); under setting [1], > 25 µM.

Regarding `COc1ccc(C2=Nc3cccc4cccc(c34)N2)cc1`, the IC50 is, setting by setting: (WT cells) > 25 µM (inactive); under setting [1], > 25 µM.

As to `CCCCCC(O)c1cccc(OCc2ccc3ccccc3n2)c1` (stereo unspecified), the IC50 runs as follows: (WT cells) 14.9 µM; under setting [1], > 25 µM.

As to `COc1ccc(O[C@H]2C=C[C@@H](c3ccccc3)O[C@@H]2COC(=O)CC/C(C)=N/O[C@@H](C)CN2CCCCc3nc(C)c(C)cc32)cc1`, the IC50 is 12.1 µM (WT cells) and > 25 µM under setting [1].

In the case of `CCOc1cc(C(=O)N(C)Cc2cc3ccccc3[nH]c2=O)cc(OCC)c1OCC`, the IC50 reads like this: (WT cells) > 25 µM (inactive); under setting [1], > 25 µM.

On to `CC(C)C12CN3CCN(CC(C3)C1O)C2` (stereo unspecified), for which the IC50 (WT cells) was > 25 µM (inactive) and the IC50 under setting [1] is > 25 µM.

For the compound `CCOC(=O)c1c(-n2c(C)cc(C=C3C(=O)NC(=S)NC3=O)c2C)sc2c1CCCC2`, the IC50 reads like this: (WT cells) 7.21 µM; under setting [1], > 25 µM.

On to `COC(=O)c1ccn(C(=O)c2ccc(Cl)cc2)n1`, for which the IC50 was > 25 µM (inactive) (WT cells) and > 25 µM under setting [1].

For `Cc1cc(C)nc(NC2=NCC(=O)N2c2ccc3c(c2)OCCO3)n1`, the IC50 (WT cells) was > 25 µM (inactive) and the IC50 under setting [1] is > 25 µM.

Regarding `CCCOc1ccc(-c2nc(C#N)c(N3CCC(C(N)=O)CC3)o2)cc1`, the IC50 was > 25 µM (inactive) (WT cells) and > 25 µM under setting [1].

Consider `CCN(Cc1ccccc1)C(c1cccs1)c1nnnn1C1CCCCC1` (stereo unspecified), for which the IC50 was 8.92 µM (WT cells) and > 25 µM under setting [1].

In the case of `O=C(NCCCN1CCOCC1)c1ccccc1-c1ccccc1`, the IC50 (WT cells) was > 25 µM (inactive) and the IC50 under setting [1] is > 25 µM.

Consider `CCCN(CCC)C(=O)CC(c1ccccc1)c1cc(Br)ccc1O` (stereo unspecified), for which the IC50 was 13.7 µM (WT cells) and > 25 µM under setting [1].

Consider `CSc1nncn1/N=C/c1ccc2c(c1)OCO2`, for which the IC50 is, setting by setting: (WT cells) > 25 µM (inactive); under setting [1], > 25 µM.

As to `FC(F)(F)c1ccc(Oc2ccc3ccccc3c2Br)nc1`, the IC50 (WT cells) is > 25 µM (inactive) and the IC50 under setting [1] was > 12.5 µM.

Turning to `CCOc1ccccc1NC(C)C(=O)Nc1cc(C(F)(F)F)ccc1N1CCOCC1` (stereo unspecified), the IC50 is 19 µM (WT cells) and 22.2 µM under setting [1].

As for `Cc1ccc2nc(-c3ccccc3)c(CN3CCN(c4ccccc4F)CC3)n2c1`, the concentration for half-maximal inhibition (IC50) is, setting by setting: (WT cells) 15.6 µM; under setting [1], > 25 µM.

As for `CN(C)S(=O)(=O)c1cccc(C(=O)NCC2CCCO2)c1` (stereo unspecified), the IC50 runs as follows: (WT cells) > 25 µM (inactive); under setting [1], > 25 µM.

Turning to `COc1cc(OC)cc(C(=O)N2CCC(n3c(C)nc4cc(F)ccc43)CC2)c1`, the IC50 (WT cells) was > 25 µM (inactive) and the IC50 under setting [1] was > 25 µM.

As to `C=CCNC1=C(Cl)C(=O)N(c2cccc(Cl)c2Cl)C1=O`, the IC50 runs as follows: (WT cells) > 25 µM (inactive); under setting [1], > 25 µM.

Consider `Cc1cccc(-c2noc(CN(C(=O)CCc3ccccc3)C(C)C)n2)c1`, for which the IC50 (WT cells) was > 25 µM (inactive) and the IC50 under setting [1] turned out to be 24.5 µM.

Turning to `Cc1ccc(-n2cccc2C(=S)N=P(N(C)C)(N(C)C)N(C)C)cc1`, the IC50 is, setting by setting: (WT cells) 9.32 µM; under setting [1], > 25 µM.

In the case of `CCOc1ccc(NC(=S)N(CCc2c(C)[nH]c3ccc(C)cc23)Cc2ccco2)cc1`, the IC50 is 6.2 µM (WT cells) and > 25 µM under setting [1].

For the compound `CC12CC3(C)CC(C)(C1)CC(C(=O)NC(=S)NC(C)(C)C)(C2)C3`, the IC50 by setting is: (WT cells) 11.6 µM; under setting [1], > 25 µM.

With `O=C(c1ccc(-c2nnc(-c3ccccc3)o2)cc1)N1CCCCCC1`, the IC50 is > 25 µM (inactive) (WT cells) and > 25 µM under setting [1].

In the case of `Cc1coc(C)c1C(=O)CC1(O)C(=O)Nc2cc(Cl)cc(Cl)c21` (stereo unspecified), the IC50 (WT cells) was > 25 µM (inactive) and the IC50 under setting [1] is > 25 µM.

Take `Cc1ccccc1CN(C)CC(=O)Nc1ccccc1-c1ccccc1`: the IC50 was 16.3 µM (WT cells) and > 25 µM under setting [1].

Take `Cc1ccc(O)c(C(=O)/C=C/c2ccc3c(c2)OCCCO3)c1`: the IC50 runs as follows: (WT cells) 12.3 µM; under setting [1], > 25 µM.
